Experimental data reported in patent US20250154138A1, “Small Molecule IL-17A Modulators” (BeiGene, Ltd., priority 2022, published 2025).
Read-outs that look alike come from different tables or passages of the source.

Legend:
[1] = system: IL-17-induced GROα secretion from HT-29 cells; assay: GROα release assay in human colorectal adenocarcinoma epithelial cell (HT-29, ELISA); format: cell-based; conditions: Homo sapiens, 10 ng/mL IL-17A, highest concentration 10 μM, read-out: Cellular assay HT29 cell/CXCL1 IC50
Method in brief: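 IC50 values come from four-parameter fits of GROα levels, quantified by ELISA (450 nm, standard curve) in supernatants. Compounds, 4-fold serially diluted from 10 μM, were mixed 15 min with IL-17A (10 ng/mL final) before 48 h incubation with HT-29 cells at 37°C.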

[2] = biological target: human IL-17A / human IL-17RA (Homo sapiens (Human), UniProt Q16552); assay: Human IL-17A biochemical assay (HTRF, blocking of IL-17A binding to IL-17RA); conditions: 0.4 nM IL-17A, 0.3 nM IL-17RA, max compound concentration 10 uM
Chain of human IL-17A / human IL-17RA (Q16552 24-155): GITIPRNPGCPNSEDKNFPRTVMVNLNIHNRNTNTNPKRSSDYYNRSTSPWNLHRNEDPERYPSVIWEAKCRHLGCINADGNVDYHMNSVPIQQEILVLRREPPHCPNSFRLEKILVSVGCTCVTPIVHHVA
Method in brief: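 HTRF readout (ex337, em620/665 nm ratio) after anti-6His Tb cryptate and anti-human IgG-XL665 detection, 1 h RT. Beforehand, 0.4 nM IL-17A sat with compound 3 h RT, then 0.3 nM IL-17RA 1 h. IC50 by four-parameter logistic fit.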

Structure (SMILES) | IC50 ([1]; HT-29, 48 h) [nM] | IC50 [2] [nM] | IC50 ([1]; 48 hours) [nM]
CNC(=O)C1(N2C[C@@H](C(C)C)NC2=O)Cc2ccc(NC(=O)[C@@H](NC(=O)c3ccnn3C(C)C)C3CCCCC3)cc2C1 (stereo partly drawn) [Example 59, N-((1S)-1-cyclohexyl-2-((2-((R)-4-isopropyl-2-oxoimidazolidin-1-yl)-2-(methylcarbamoyl)-2,3-dihydro-1H-inden-5-yl)amino)-2-oxoethyl)-1-isopropyl-1H-pyrazole-5-carboxamide] | 34.5 | 93 | –
Cc1nonc1C(=O)N[C@H](C(=O)Nc1ccc2c(c1)CC(C(=O)Nc1cccc(F)c1)(N1CC3(CC3)CNC1=O)C2)C1CCC(F)(F)CC1 (stereo partly drawn) [Example 203, N-((1S)-1-(4,4-difluorocyclohexyl)-2-((2-((3-fluorophenyl)carbamoyl)-2-(6-oxo-5,7-diazaspiro[2.5]octan-5-yl)-2,3-dihydro-1H-inden-5-yl)amino)-2-oxoethyl)-4-methyl-1,2,5-oxadiazole-3-carboxamide] | 135 | 63.9 | –
CNC(=O)C1(N2C[C@@H](C(C)C)NC2=O)Cc2ccc(NC(=O)C(NC(=O)c3ccnn3C)C3CCC(C)CC3)cc2C1 (stereo partly drawn) [Example 89, N-(2-((2-((R)-4-isopropyl-2-oxoimidazolidin-1-yl)-2-(methylcarbamoyl)-2,3-dihydro-1H-inden-5-yl)amino)-1-(4-methylcyclohexyl)-2-oxoethyl)-1-methyl-1H-pyrazole-5-carboxamide] | 29.7 | 18 | –
Cc1nonc1C(=O)N[C@H](C(=O)Nc1ccc2c(c1)CC(C(=O)Nc1cccc(F)c1)(N1C[C@@H](C(C)C)NC1=O)C2)C(C1CC1)C1CC1 (stereo partly drawn) [Example 236, N-((2S)-1,1-dicyclopropyl-3-((2-((3-fluorophenyl)carbamoyl)-2-((R)-4-isopropyl-2-oxoimidazolidin-1-yl)-2,3-dihydro-1H-inden-5-yl)amino)-3-oxopropan-2-yl)-4-methyl-1,2,5-oxadiazole-3-carboxamide] | 537 | 245 | –
CNC(=O)C1(N2C[C@@H](C(C)C)NC2=O)Cc2ccc(NC(=O)[C@@H](NC(=O)Oc3ccccc3)C3CCCCC3)cc2C1 (stereo partly drawn) [Example 51, phenyl ((1S)-1-cyclohexyl-2-((2-((R)-4-isopropyl-2-oxoimidazolidin-1-yl)-2-(methylcarbamoyl)-2,3-dihydro-1H-inden-5-yl)amino)-2-oxoethyl)carbamate] | – | 686 | 2050
CNC(=O)C1(N2CC3(CC3)CNC2=O)Cc2ccc(NC(=O)[C@@H](NC(=O)c3cc(C#N)cn3C)C3CCCCC3)cc2C1 (stereo partly drawn) [Example 130, 4-cyano-N-((1S)-1-cyclohexyl-2-((2-(methylcarbamoyl)-2-(6-oxo-5,7-diazaspiro[2.5]octan-5-yl)-2,3-dihydro-1H-inden-5-yl)amino)-2-oxoethyl)-1-methyl-1H-pyrrole-2-carboxamide] | 59.6 | 19 | –
Cc1nonc1C(=O)N[C@H](C(=O)Nc1ccc2c(c1)CC(C(=O)Nc1ccccc1F)(N1C[C@@H](C(C)C)NC1=O)C2)C(C1CC1)C1CC1 (stereo partly drawn) [Example 262, N-((2S)-1,1-dicyclopropyl-3-((2-((2-fluorophenyl)carbamoyl)-2-((R)-4-isopropyl-2-oxoimidazolidin-1-yl)-2,3-dihydro-1H-inden-5-yl)amino)-3-oxopropan-2-yl)-4-methyl-1,2,5-oxadiazole-3-carboxamide] | 447 | 99.4 | –
Cc1nonc1C(=O)N[C@H](C(=O)Nc1ccc2c(c1)CC(C(=O)Nc1ccncc1Cl)(N1C[C@@H](C(C)C)NC1=O)C2)C(C1CC1)C1CC1 (stereo partly drawn) [Example 284, N-((2S)-1-((2-((3-chloropyridin-4-yl)carbamoyl)-2-((R)-4-isopropyl-2-oxoimidazolidin-1-yl)-2,3-dihydro-1H-inden-5-yl)amino)-3,3-dicyclopropyl-1-oxopropan-2-yl)-4-methyl-1,2,5-oxadiazole-3-carboxamide] | 354 | 268 | –
CNC(=O)C1(N2C[C@@H](C(C)C)NC2=O)Cc2ccc(NC(=O)[C@H](Cc3ccc(Cl)cc3)NC(=O)c3ccnn3C)cc2C1 (stereo partly drawn) [Example 204, N-((2S)-3-(4-chlorophenyl)-1-((2-((R)-4-isopropyl-2-oxoimidazolidin-1-yl)-2-(methylcarbamoyl)-2,3-dihydro-1H-inden-5-yl)amino)-1-oxopropan-2-yl)-1-methyl-1H-pyrazole-5-carboxamide] | 2240 | 406 | –
CNC(=O)C1(N2CC3(CC3)CNC2=O)Cc2ccc(NC(=O)C(NC(=O)c3ccnn3C)C3CCC(C(F)(F)F)CC3)cc2C1 (stereo not shown) [Example 164, 1-methyl-N-(2-((2-(methylcarbamoyl)-2-(6-oxo-5,7-diazaspiro[2.5]octan-5-yl)-2,3-dihydro-1H-inden-5-yl)amino)-2-oxo-1-(4-(trifluoromethyl)cyclohexyl)ethyl)-1H-pyrazole-5-carboxamide] | 112 | 35.2 | –
CNC(=O)C1(N2CC(C)NC2=O)Cc2cc3nc([C@@H](NC(=O)c4ccnn4C)C4CCCCC4)[nH]c3cc2C1 (stereo partly drawn) [Example 5, 2-((S)-cyclohexyl(1-methyl-1H-pyrazole-5-carboxamido)methyl)-N-methyl-6-(4-methyl-2-oxoimidazolidin-1-yl)-1,5,6,7-tetrahydroindeno[5,6-d]imidazole-6-carboxamide] | 353 | 410 | –
CNC(=O)C1(N2C[C@@H](C(C)C)NC2=O)Cc2ccc(NC(=O)[C@@H](NC(=O)c3ccnn3C)C3CCCCC3)cc2C1 (stereo partly drawn) [Example 39, N-((1S)-1-cyclohexyl-2-((2-((R)-4-isopropyl-2-oxoimidazolidin-1-yl)-2-(methylcarbamoyl)-2,3-dihydro-1H-inden-5-yl)amino)-2-oxoethyl)-1-methyl-1H-pyrazole-5-carboxamide] | 56.4 | 22.6 | –
CNC(=O)C1(N2CC3(CCCC3)CNC2=O)Cc2ccc(NC(=O)[C@@H](NC(=O)c3ccnn3C)C3CCCCC3)cc2C1 (stereo partly drawn) [Example 147, N-((1S)-1-cyclohexyl-2-((2-(methylcarbamoyl)-2-(8-oxo-7,9-diazaspiro[4.5]decan-7-yl)-2,3-dihydro-1H-inden-5-yl)amino)-2-oxoethyl)-1-methyl-1H-pyrazole-5-carboxamide] | 61.8 | 22.4 | –
COC(=O)C1(N2CC3(CC3)CNC2=O)Cc2ccc(NC(=O)C(NC(=O)c3ccnn3C)C3CCC(C(C)C)CC3)cc2C1 (stereo not shown) [Example 148, methyl 5-(2-(4-isopropylcyclohexyl)-2-(1-methyl-1H-pyrazole-5-carboxamido)acetamido)-2-(6-oxo-5,7-diazaspiro[2.5]octan-5-yl)-2,3-dihydro-1H-indene-2-carboxylate] | 164 | 62 | –
Cc1nonc1C(=O)N[C@H](C(=O)Nc1ccc2c(c1)CC(C#N)(N1CC3(CC3)CNC1=O)C2)C(C1CC1)C1CC1 (stereo partly drawn) [Example 226, N-((2S)-1-((2-cyano-2-(6-oxo-5,7-diazaspiro[2.5]octan-5-yl)-2,3-dihydro-1H-inden-5-yl)amino)-3,3-dicyclopropyl-1-oxopropan-2-yl)-4-methyl-1,2,5-oxadiazole-3-carboxamide] | 225 | 50.4 | –
CC(C)[C@@H]1CN(CC2Cc3ccc(NC(=O)[C@@H](NC(=O)c4ccnn4C(C)C)C(C4CC4)C4CC4)cc3N2)C(=O)N1 (stereo partly drawn) [Example 286, N-((2S)-1,1-dicyclopropyl-3-((2-(((R)-4-isopropyl-2-oxoimidazolidin-1-yl)methyl)indolin-6-yl)amino)-3-oxopropan-2-yl)-1-isopropyl-1H-pyrazole-5-carboxamide] | 430 | 144 | –
CC1CN(C2(C(=O)O)Cc3ccc(NC(=O)[C@@H](NC(=O)c4ccnn4C)C4CCCCC4)cc3C2)C(=O)N1 (stereo partly drawn) [Example 23, 5-((S)-2-cyclohexyl-2-(1-methyl-1H-pyrazole-5-carboxamido)acetamido)-2-(4-methyl-2-oxoimidazolidin-1-yl)-2,3-dihydro-1H-indene-2-carboxylic acid] | 3660 | 640 | –
Cn1nccc1C(=O)NC(C(=O)Nc1ccc2c(c1)CC(N1C[C@@H](C(F)(F)F)NC1=O)C2)C1Cc2ccc(Cl)cc2C2(CC2)C1 (stereo partly drawn) [Example 224, N-(1-(7′-chloro-3′,4′-dihydro-2′H-spiro[cyclopropane-1,1′-naphthalen]-3′-yl)-2-oxo-2-((2-((S)-2-oxo-4-(trifluoromethyl)imidazolidin-1-yl)-2,3-dihydro-1H-inden-5-yl)amino)ethyl)-1-methyl-1H-pyrazole-5-carboxamide] | 85.1 | 47.8 | –
Cc1cccc(NC(=O)C2(N3CC4(CC4)CNC3=O)Cc3ccc(NC(=O)[C@@H](NC(=O)c4nonc4C)C4CCC(F)(F)CC4)cc3C2)c1 (stereo partly drawn) [Example 229, N-((1S)-1-(4,4-difluorocyclohexyl)-2-oxo-2-((2-(6-oxo-5,7-diazaspiro[2.5]octan-5-yl)-2-(m-tolylcarbamoyl)-2,3-dihydro-1H-inden-5-yl)amino)ethyl)-4-methyl-1,2,5-oxadiazole-3-carboxamide] | 85.1 | 28.6 | –
CC(C1Cc2ccc(NC(=O)[C@@H](NC(=O)c3ccnn3C(C)C)C(C3CC3)C3CC3)cc2O1)N1C[C@@H](C(F)(F)F)NC1=O (stereo partly drawn) [Example 277, N-((2S)-1,1-dicyclopropyl-3-oxo-3-((2-(1-((S)-2-oxo-4-(trifluoromethyl)imidazolidin-1-yl)ethyl)-2,3-dihydrobenzofuran-6-yl)amino)propan-2-yl)-1-isopropyl-1H-pyrazole-5-carboxamide] | 1280 | 560 | –
